From US20260109699A1, “AZOLE DERIVATIVES AS SHP2 INHIBITORS” (IRBM S.P.A., priority 2022, published 2026)

How the values were obtained:
[1] = test system: phospho-ERK1/2 (Thr202/Tyr204); test: Phospho-ERK cellular assay; format: cell-based; conditions: Homo sapiens; KYSE-520 cells, 2 h at 37° C, TR-FRET; read-out: pERK IC50
Description: ERK phosphorylation was detected using the “Advanced phospho-ERK1/2 (Thr202/Tyr204)” TR-FRET kit (Cisbio, Cat #64AERPEG/H), following the manufacturer reagents and instructions.
Briefly, 20.000/well KYSE-520 cells (DSMZ ACC 371) were plated in 6 μL RPMI-1640 (Invitrogen) growth medium, into 384 white low-volume high base TC microplates (Greiner). After an overnight incubation, cells were treated with DMSO serial diluted compounds and incubated for 2 h at 37° C. After incubation, 2 μL/well of 4×Lysis Buffer (Cisbio 64KL1FDF), were added and incubated with cells for 30 min on gentle shaking. Finally, lysates were added with 2 μL/well of Eu cryptate (donor) and D2 (acceptor) conjugated antibodies (as provided by the Cisbio kit #64AERPEG/H) diluted 1:100 in Detection Buffer (as provided by the Cisbio kit #64AERPEG/H). Plates were then sealed and incubated at rt in the dark. After an overnight incubation, the TR-FRET signal was detected on a suitable reader (Envision, PerkinElmer).
The lower the TR-FRET signal the higher the higher the SHP2 inhibition in cells.
The activity of each compound dilution was calculated as percentage between vehicle DMSO treated cells and no cells, 0% inhibition and 100% inhibition respectively. The percentage activity is fitted against the compound dilutions with a four-parameter logistic regression. The inflection point (i.e. the concentration at which half-maximal inhibition is achieved) is the IC50.
Legend: “+” indicates IC50 equal or higher than 0.5 μM; “++” indicates IC50 less than 0.5 μM and higher or equal to 0.1 μM; “+++” indicates IC50 less than 0.1 μM.

[2] = biological target: T1, SHP-2 enzyme (Met1-Leu525), SHP2wt (Homo sapiens, UniProt Q06124); test: SHP2 inhibition enzymatic assay; format: biochemical; conditions: 0.5 nM SHP-2 activated by 500 nM IRS1 peptide, 75 μM DiFMUP substrate
T1 construct: synthetized by Origene, Met1-Leu525, cat #TP750155; purchased Origene TP750155
T1 sequence (Q06124 1-525): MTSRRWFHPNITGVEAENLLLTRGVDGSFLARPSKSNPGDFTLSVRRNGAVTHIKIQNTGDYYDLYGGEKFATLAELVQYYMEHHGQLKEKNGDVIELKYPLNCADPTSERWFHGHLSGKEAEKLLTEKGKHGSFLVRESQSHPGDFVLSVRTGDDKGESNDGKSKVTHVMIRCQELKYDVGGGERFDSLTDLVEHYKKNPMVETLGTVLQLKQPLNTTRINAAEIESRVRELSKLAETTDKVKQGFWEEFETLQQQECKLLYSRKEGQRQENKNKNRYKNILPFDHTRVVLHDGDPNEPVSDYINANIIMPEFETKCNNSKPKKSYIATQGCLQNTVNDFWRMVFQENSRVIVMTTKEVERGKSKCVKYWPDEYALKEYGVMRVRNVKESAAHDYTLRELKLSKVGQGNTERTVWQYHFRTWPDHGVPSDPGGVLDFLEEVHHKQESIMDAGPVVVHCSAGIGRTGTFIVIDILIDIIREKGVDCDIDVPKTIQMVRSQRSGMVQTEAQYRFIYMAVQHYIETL
Description: The assay was performed as described in YP Chen et al, Nature (535) 2016. Assay volume of 20 μL/well was assembled in 384 well black polystyrene low-binding microplates (Greiner), using the following buffer: 60 mM HEPES pH 7.2, 75 mM NaCl, 75 mM KCl, 1 mM EDTA pH 8, 0.05% tween-20, 5 mM DTT. The SHP-2 enzyme (synthetized by Origene, Met1-Leu525, cat #TP750155) was used at a final concentration of 0.5 nM. The enzyme was activated by 500 nM IRS1 peptide (sequence: H2N-LN(pY)IDLDLV(dPEG8)LST(pY)ASINFQK-amide; Wang et al., iScience 25,104009, Apr. 15, 2022, https://doi.org/10.1016/j.isci.2022.104009) and incubated with 75 μM DiFMUP (Sigma) as substrate.
Briefly, DMSO serially diluted testing compounds were transferred to the bottom of the assay plate. SHP2 was then added together with the IRS1 peptide 30 min post incubation, the DiFMUP substrate was added to the reaction and incubated 30 min at rt. Finally 5 μL of 160 μM bpV (potassium bisperoxo[1,10-phenanthroline]oxovanadate [V], Sigma) were added to stop and quench the reaction. The fluorescence was detected by a microplate reader (Envision, PerkinElmer) according to the DiFMUP excitation and emission wavelength. The lower the fluorescence the higher the SHP2 inhibition.
The activity of each compound dilution was calculated as percentage of inhibition between vehicle (DMSO, 0% inhibition) and no enzyme (100% inhibition). The percentage inhibition is fitted against the compound dilutions with a four-parameter logistic regression. The inflection point (i.e. the concentration at which half-maximal inhibition is achieved) is the IC50.
Legend: A indicates IC50 less or equal to 0.05 μM; B indicates IC50 greater than 0.05 μM and lower or equal to 0.3 μM.

Structure (SMILES) | IC50 [1] | IC50 [2]
N[C@@H]1c2ccnn2CC12CCN(c1cnc(Sc3cccc(-n4ccnc4C(F)F)c3Cl)cn1)CC2 [Example 82, (S)-1-(5-((2-chloro-3-(2-(difluoromethyl)-1H-imidazol-1-yl)phenyl)thio)pyrazin-2-yl)-4′H,6′H-spiro[piperidine-4,5′-pyrrolo[1,2-b]pyrazol]-4′-amine] | < 100 nM | ≤ 50 nM
N[C@@H]1c2ccnn2CC12CCN(c1nccn3c(-c4cccc(F)c4Cl)ncc13)CC2 [Example 14, (S)-1-(3-(2-chloro-3-fluorophenyl)imidazo[1,5-a]pyrazin-8-yl)-4′H,6′H-spiro[piperidine-4,5′-pyrrolo[1,2-b]pyrazol]-4′-amine] | 100 to 500 nM | ≤ 50 nM
N[C@@H]1c2cccn2CC12CCN(c1cnc(Sc3cccc(Cl)c3Cl)cn1)CC2 [Example 28, (S)-1-(5-((2,3-dichlorophenyl)thio)pyrazin-2-yl)-1′H,3′H-spiro[piperidine-4,2′-pyrrolizin]-1′-amine] | < 100 nM | ≤ 50 nM
Cc1c(F)cccc1Sc1cnc(N2CCC3(CC2)Cn2nccc2[C@H]3N)cn1 [Example 57, (S)-1-(5-((3-fluoro-2-methylphenyl)thio)pyrazin-2-yl)-4′H,6′H-spiro[piperidine-4,5′-pyrrolo[1,2-b]pyrazol]-4′-amine] | < 100 nM | ≤ 50 nM
N[C@@H]1c2ccnn2CC12CCN(c1cnc(Sc3cccc4ncccc34)cn1)CC2 [Example 61, (S)-1-(5-(quinolin-5-ylthio)pyrazin-2-yl)-4′H,6′H-spiro[piperidine-4,5′-pyrrolo[1,2-b]pyrazol]-4′-amine] | < 100 nM | ≤ 50 nM
N[C@@H]1c2ccnn2CC12CCN(c1cnc(Sc3cc(C(F)F)ccc3F)cn1)CC2 [Example 74, (S)-1-(5-((5-(difluoromethyl)-2-fluorophenyl)thio)pyrazin-2-yl)-4′H,6′H-spiro[piperidine-4,5′-pyrrolo[1,2-b]pyrazol]-4′-amine] | 100 to 500 nM | ≤ 50 nM
N[C@@H]1c2ccnn2CC12CCN(c1cnc(Sc3cccc(F)c3Cl)cn1)CC2 [Example 30, (S)-1-(5-((2-chloro-3-fluorophenyl)thio)pyrazin-2-yl)-4′H,6′H-spiro[piperidine-4,5′-pyrrolo[1,2-b]pyrazol]-4′-amine] | < 100 nM | ≤ 50 nM
N[C@@H]1c2ccnn2CC12CCN(c1cnc(Oc3ccccc3F)cn1)CC2 [Example 78, (S)-1-(5-(2-fluorophenoxy)pyrazin-2-yl)-4′H,6′H-spiro[piperidine-4,5′-pyrrolo[1,2-b]pyrazol]-4′-amine] | 100 to 500 nM | ≤ 50 nM

Other lines, results leading:

IC50 [1] | IC50 [2] | Structure (SMILES)
< 100 nM | ≤ 50 nM | COc1ccc(Sc2cnc(N3CCC4(CC3)Cn3nccc3[C@H]4N)cn2)c(F)c1 [Example 64, (S)-1-(5-((2-fluoro-4-methoxyphenyl)thio)pyrazin-2-yl)-4′H,6′H-spiro[piperidine-4,5′-pyrrolo[1,2-b]pyrazol]-4′-amine]
< 100 nM | ≤ 50 nM | Cn1cnc2ccc(Sc3cnc(N4CCC5(CC4)Cn4nccc4[C@H]5N)cn3)cc21 [Example 65, (S)-1-(5-((1-methyl-1H-benzo[d]imidazol-6-yl)thio)pyrazin-2-yl)-4′H,6′H-spiro[piperidine-4,5′-pyrrolo[1,2-b]pyrazol]-4′-amine]
100 to 500 nM | ≤ 50 nM | N[C@@H]1c2ccnn2CC12CCN(c1cnc(Sc3ccc(OC(F)(F)F)cc3)cn1)CC2 [Example 18, (S)-1-(5-((4-(trifluoromethoxy)phenyl)thio)pyrazin-2-yl)-4′H,6′H-spiro[piperidine-4,5′-pyrrolo[1,2-b]pyrazol]-4′-amine]
< 100 nM | ≤ 50 nM | N[C@@H]1c2ccnn2CC12CCN(c1cnc(Sc3ccc(F)c(F)c3F)cn1)CC2 [Example 49, (S)-1-(5-((2,3,4-trifluorophenyl)thio)pyrazin-2-yl)-4′H,6′H-spiro[piperidine-4,5′-pyrrolo[1,2-b]pyrazol]-4′-amine]
